From the supplement of paper PMC11061612

Tests used:
Experiment in all cases: Bliss excess, mean over the matrix (fraction); higher = more synergy
[1] = system: BFTC-909 (Kidney Carcinoma)
Summary of the method: (§1)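 After 24 hours at 37°C and 5% CO2 in 1536-well plates, cells in DMEM/F12 or RPMI plus 10% FBS received two-drug dose matrices for 72 hours. Viability came from CellTiter-Glo 2.0 luminescence and was scaled as inhibition, anchored at 0 by vehicle wells and at 1 by blank wells. Combination Emax is taken as the second-highest inhibition in the matrix, and Bliss excess as the observed combination effect less EA + EB − EA·EB, with EA and EB the single-agent effects.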

[2] = system: BPH-1 (Non-Cancerous)
Summary of the method: as §1

[3] = system: CAL-33 (Oral Cavity Carcinoma)
Summary of the method: as §1

[4] = system: ESS-1 (Other Solid Carcinomas)
Summary of the method: as §1

[5] = system: FTC-133 (Thyroid Gland Carcinoma)
Summary of the method: as §1

[6] = system: GAMG (Glioblastoma)
Summary of the method: as §1

[7] = system: HH (T-Cell Non-Hodgkin's Lymphoma)
Summary of the method: as §1

[8] = system: L-428 (Hodgkin's Lymphoma)
Summary of the method: as §1

[9] = system: LCLC-97TM1 (Non-Small Cell Lung Carcinoma)
Summary of the method: as §1

[10] = system: LNZTA3WT4 (Low Grade Glioma)
Summary of the method: as §1

[11] = system: LOXIMVI (Melanoma)
Summary of the method: as §1

[12] = system: LS-123 (Colorectal Carcinoma)
Summary of the method: as §1

[13] = system: MPP-89 (Mesothelioma)
Summary of the method: as §1

[14] = system: NCI-H1568 (Lung Adenocarcinoma)
Summary of the method: as §1

[15] = system: NCI-H2052 (Mesothelioma)
Summary of the method: as §1

[16] = system: NUGC-4 (Gastric Carcinoma)
Summary of the method: as §1

[17] = system: OVCAR-5 (Ovarian Carcinoma)
Summary of the method: as §1

[18] = system: SAS (Oral Cavity Carcinoma)
Summary of the method: as §1

[19] = system: TGBC1TKB (Biliary Tract Carcinoma)
Summary of the method: as §1

[20] = system: YAPC (Pancreatic Carcinoma)
Summary of the method: as §1

Row | SMILES | Bliss excess [1] | Bliss excess [2] | Bliss excess [3] | Bliss excess [4] | Bliss excess [5] | Bliss excess [6] | Bliss excess [7] | Bliss excess [8] | Bliss excess [9] | Bliss excess [10] | Bliss excess [11] | Bliss excess [12] | Bliss excess [13] | Bliss excess [14] | Bliss excess [15] | Bliss excess [16] | Bliss excess [17] | Bliss excess [18] | Bliss excess [19] | Bliss excess [20]
1 | Cc1cc2ncnn2cc1Nc1ncc2c(n1)n(C1CCOCC1)c(=O)n2C [AZD7648] + CN(C)CCCOc1ccc(-c2ccc3ncc4c(c3c2)n(C2CCOCC2)c(=O)n4C)cn1 [AZD0156] (first compound max 10 µM, 7x7, partner max 1 µM) | -0.0032 | 0.0049 | 0.0227 | 0.0364 | 0.0239 | -0.058 | -0.0338 | 0.069 | -0.0042 | 0.0113 | -0.0141 | 0.0338 | 0.0139 | -0.0213 | 0.0038 | 0.0034 | -0.0244 | 0.0623 | -0.027 | -0.0126
2 | Cc1cc2ncnn2cc1Nc1ncc2c(n1)n(C1CCOCC1)c(=O)n2C [AZD7648] + CCN(CCO)CCCOc1ccc2c(Nc3cc(CC(=O)Nc4cccc(F)c4)[nH]n3)ncnc2c1 [AZD2811] (first compound max 10 µM, 7x7, partner max 1 µM) | 0.0076 | 0.0033 | -0.0089 | 0.128 | 0.0066 | 0.0192 | -0.0598 | 0.0783 | 0.0467 | 0.0063 | -0.0125 | -0.0172 | 0.0023 | -0.0172 | -0.0104 | -0.0257 | 0.043 | 0.0058 | 0.0111 | 0.0032
3 | COc1cc2c(cc1OCCCCCOc1cc3c(cc1OC)C(=O)N1C=C(C)C[C@H]1C=N3)N=C[C@@H]1CC(C)=CN1C2=O [SG3199] + O=C(c1cc(Cc2n[nH]c(=O)c3ccccc23)ccc1F)N1CCN(C(=O)C2CC2)CC1 [Olaparib] (first compound max 0.001 µM, 7x7, partner max 10 µM) | -0.0308 | 0.0391 | -0.0198 | -0.0118 | -0.013 | -0.0494 | -0.0344 | -0.0207 | -0.0079 | -0.0444 | -0.0599 | -0.0211 | -0.0391 | -0.077 | -0.0319 | -0.0134 | -0.0314 | -0.03 | -0.0438 | -0.0534
4 | Cc1cc2ncnn2cc1Nc1ncc2c(n1)n(C1CCOCC1)c(=O)n2C [AZD7648] + O=C(c1cc(Cc2n[nH]c(=O)c3ccccc23)ccc1F)N1CCN(C(=O)C2CC2)CC1 [Olaparib] (first compound max 10 µM, 7x7, partner max 10 µM) | -0.037 | 0.0337 | -0.0237 | -0.0721 | -0.0306 | -0.0608 | -0.0269 | -0.019 | -0.0218 | -0.0341 | -0.0577 | -0.0221 | -0.0163 | -0.0307 | -0.0521 | -0.049 | -0.0349 | -0.0245 | -0.0649 | -0.0521
5 | Cc1nc(Nc2ncc(C(=O)Nc3c(C)cccc3Cl)s2)cc(N2CCN(CCO)CC2)n1 [Dasatinib] + CC(=O)Nc1cccc(-n2c(=O)n(C3CC3)c(=O)c3c(Nc4ccc(I)cc4F)n(C)c(=O)c(C)c32)c1 [Trametinib] (first compound max 2 µM, 7x7, partner max 1 µM) | -0.0139 | -0.0801 | -0.0189 | -0.0417 | -0.0878 | -0.018 | -0.0188 | -0.0494 | 0.0455 | -0.0794 | 0.0175 | 0.0891 | -0.0661 | 0.118 | -0.0528 | 0.007 | 0.0217 | 0.0083 | 0.123 | 0.0605
6 | C[C@@H](c1ccc2nccn2c1)n1nnc2ncc(-c3cnn(C)c3)nc21 [Savolitinib] + CC1(C)CCC(CN2CCN(c3ccc(C(=O)NS(=O)(=O)c4ccc(NCC5CCOCC5)c([N+](=O)[O-])c4)c(Oc4cnc5[nH]ccc5c4)c3)CC2)=C(c2ccc(Cl)cc2)C1 [Venetoclax] (first compound max 1 µM, 7x7, partner max 1 µM) | -0.0401 | -0.0928 | -0.0211 | -0.0241 | -0.0611 | -0.0257 | -0.0712 | -0.0284 | -0.0427 | -0.0907 | -0.0355 | -0.0794 | -0.0566 | -0.0575 | -0.0549 | -0.0817 | -0.0597 | -0.0388 | -0.0122 | -0.0232
